The text below walks through data of publication PMC8989696, “Characterization of furathiocarb metabolism in in-vitro human liver microsomes and recombinant cytochrome P450 enzymes” (Toxicology Reports, 2022).

What all share (type): in vitro ADME
One data set deals with T1, CYP1A2 (Homo sapiens, UniProt P05177).
T1 construct: from tissue; host or cells: pooled human liver microsomes (n = 10 donors)
T1 sequence (P05177 1-516): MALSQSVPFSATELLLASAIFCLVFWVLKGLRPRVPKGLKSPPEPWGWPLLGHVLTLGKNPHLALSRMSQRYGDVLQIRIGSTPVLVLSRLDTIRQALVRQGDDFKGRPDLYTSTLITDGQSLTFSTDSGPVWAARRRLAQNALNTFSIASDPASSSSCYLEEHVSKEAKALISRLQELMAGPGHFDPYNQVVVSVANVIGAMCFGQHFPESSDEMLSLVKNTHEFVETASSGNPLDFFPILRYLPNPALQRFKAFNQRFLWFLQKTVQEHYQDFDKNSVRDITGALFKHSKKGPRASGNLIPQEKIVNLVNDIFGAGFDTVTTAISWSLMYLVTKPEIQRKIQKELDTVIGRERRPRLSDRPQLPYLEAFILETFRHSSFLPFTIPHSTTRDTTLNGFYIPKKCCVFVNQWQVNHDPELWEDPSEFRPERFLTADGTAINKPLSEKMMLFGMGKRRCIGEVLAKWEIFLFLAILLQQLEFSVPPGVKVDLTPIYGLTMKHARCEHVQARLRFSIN
Briefly: biochemical. The method, then: (§1) N-in-one (“cocktail”) assay for measuring major CYP activities simultaneously, [55], [56] was employed to investigate human CYP-furathiocarb inhibitory interactions in pooled human hepatic microsomes. Furathiocarb (ﬁnal concentrations in the incubation mixture were 1, 5, 25, 50, and 100 µM) was added to the incubation mixture. The N-in-one was used earlier for the study of pesticide interactions and the details of the incubations with furathiocarb are described in Supplementary materials.
(§2) The kinetic parameters Vmax and Km were calculated by nonlinear regression. Bivariate linear Pearson’s correlation coefﬁcients (r2) were calculated between metabolite formations and model activities in the livers. GraphPad Prism 9 Software (Inc., San Diego, CA) Prism 9.0.0 (San Diego, CA) was used for kinetic parameters and correlation coefﬁcients analysis. The IC50 values were determined by linear regression analysis using OriginPro 2020 (MicroCal Software, Inc., Northampton, MA.
(§3) N-in-one assay was performed to investigate human CYP-furathiocarb inhibitory interactions. Furathiocarb (ﬁnal concentrations in the incubation mixture were 1, 5, 25, 50, and 100 µM) was added to the incubation mixture.
(§4) The N-in-one assay, analytical method and authentic standards have been described previously (Abass and Pelkonen 2013; Tolonen et al. 2007; Turpeinen et al. 2005). […]

The target of the next data set is T2, CYP2C19 (Homo sapiens, UniProt P33261).
T2 construct: from tissue; host or cells: pooled human liver microsomes (n = 10 donors)
The data set can be described thus: biochemical. On the procedure: as §1, §2, §3, §4

In data set [1] the target is T3, CYP2B6 (Homo sapiens, UniProt P20813).
T3 sequence (P20813 1-491): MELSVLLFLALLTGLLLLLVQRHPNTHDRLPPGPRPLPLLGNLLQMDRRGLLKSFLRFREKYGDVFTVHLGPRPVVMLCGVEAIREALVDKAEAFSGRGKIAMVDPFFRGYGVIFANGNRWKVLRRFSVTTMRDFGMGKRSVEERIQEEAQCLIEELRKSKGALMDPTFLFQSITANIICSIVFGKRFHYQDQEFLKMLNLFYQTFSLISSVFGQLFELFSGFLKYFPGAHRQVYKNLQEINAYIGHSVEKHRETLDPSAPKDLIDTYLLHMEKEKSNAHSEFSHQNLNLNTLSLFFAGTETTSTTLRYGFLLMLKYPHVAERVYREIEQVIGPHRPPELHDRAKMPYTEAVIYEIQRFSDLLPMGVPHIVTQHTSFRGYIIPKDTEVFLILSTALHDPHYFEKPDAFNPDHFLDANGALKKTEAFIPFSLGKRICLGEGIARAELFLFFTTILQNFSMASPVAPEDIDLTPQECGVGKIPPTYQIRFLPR
Briefly: biochemical. Also on record: from tissue; host or cells: pooled human liver microsomes (n = 10 donors). The method, then: as §1, §2, §3, §4

In data set [2] the target is T3, CYP2B6. The data set can be described thus: in vitro. Also on record: purchased BD Biosciences Discovery Labware (Bedford, MA); host or cells: baculovirus-infected insect cells. To be noted: pH 7.4, Carbofuran metabolic pathway, rCYP2B6. On the procedure:
Furathiocarb was incubated with recombinant CYPs (rCYP). The incubation mixture contained rCYPs (50 pmol CYP per ml), 100 µM furathiocarb, and 1 mM NADPH in 200 µl 0.1 M phosphate buffer (pH 7.4). Incubation procedures and chromatographic separation are presented in Supplementary materials.
Enzyme kinetic parameters of both the microsomal samples and rCYP enzymes were measured. The incubation mixture contained furathiocarb (2.5, 10, 25, 50, 150 and 300 µM). Incubation times were 20 and 30 min for microsomal samples and rCYPs, respectively. Otherwise incubation mixtures and methods were the same as in metabolite identification. The rate of sum of furathiocarb metabolite formation was linear at least up to 0.15 mg protein/ml and 30 min incubation time in the standard experimental conditions.
To measure the main furathiocarb metabolites of recombinantly expressed CYP enzymes (rCYPs), the standard incubation mixture (200 µl) contained 0.1 M phosphate buffer (pH 7.4), 1 mM NADPH, 100 µM […], and rCYPs (50 pmol CYP per ml). Incubations were carried out according to the manufacturer’s instructions. Shortly, the reaction was started by adding recombinant enzymes to the preincubated eaction mixture (2 min at +37 ◦C), mixed gently and incubated for 30 min at +37 ◦C in an incubator block without agitation. […]

Broadly, the IC50 is the midpoint of a concentration-inhibition curve. Broadly, the Km is the substrate concentration at which the rate is half of its maximum.

T2 sequence (P33261 whole entry): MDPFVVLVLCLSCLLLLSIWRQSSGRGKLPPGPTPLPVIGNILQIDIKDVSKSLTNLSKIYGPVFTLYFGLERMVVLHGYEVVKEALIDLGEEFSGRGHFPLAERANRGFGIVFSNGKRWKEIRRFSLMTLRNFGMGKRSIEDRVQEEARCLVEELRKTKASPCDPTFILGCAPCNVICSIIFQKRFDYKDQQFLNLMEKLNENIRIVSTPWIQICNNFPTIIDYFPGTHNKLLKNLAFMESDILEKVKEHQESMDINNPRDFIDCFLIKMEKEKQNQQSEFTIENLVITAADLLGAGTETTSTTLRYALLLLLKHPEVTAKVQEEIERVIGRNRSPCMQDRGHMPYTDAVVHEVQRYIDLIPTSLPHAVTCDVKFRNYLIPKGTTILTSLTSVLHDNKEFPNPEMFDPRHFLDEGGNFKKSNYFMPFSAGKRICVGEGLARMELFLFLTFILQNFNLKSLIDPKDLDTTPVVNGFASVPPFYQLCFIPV

As to `CCCCOC(=O)N(C)SN(C)C(=O)Oc1cccc2c1OC(C)(C)C2` [furathiocarb, Furathiocarb], the IC50 on CYP1A2, against CYP2C19 and at CYP2B6 [1] was 16.5 to 18.5 µM in each case. Also, on CYP2B6 [2], the Km at 30 min is 9.7 ± 3.9 µM.
